# Assay results: ChEMBL document CHEMBL1781873, “Synthesis and antibacterial property of pyrrolopyrano quinolinones and pyrroloquinolines” (2011)
# Active and inactive are the calls of the source. The calls are words filed in the database; no cut-off is given here.
# What was measured:
# Salmonella typhi [1] = test: Antibacterial activity against Salmonella typhi at 5 ug after 24 hrs by disc diffusion assay; assay type: functional, Salmonella enterica subsp. enterica serovar Typhi; details: Salmonella enterica, read-out: IZ
# Escherichia coli [2] = test: Inhibition of DNA gyrase mRNA expression in Escherichia coli measured up to 24 hrs by RT-PCR; assay type: functional, organism-based
# Staphylococcus aureus [3] = test: Antibacterial activity against Staphylococcus aureus at 5 ug after 24 hrs by disc diffusion assay; assay type: functional; details: read-out: IZ
# Escherichia coli [4] = test: Inhibition of Escherichia coli DNA gyrase assessed as inhibition of DNA supercoiling activity using pBR322 DNA as substrate at […] after 3 hrs by agarose gel electrophoresis
# Staphylococcus aureus [5] = test: Antibacterial activity against Staphylococcus aureus at 20 ug after 24 hrs by disc diffusion assay; assay type: functional; details: read-out: IZ
# Escherichia coli [6] = test: Antibacterial activity against Escherichia coli at 20 ug after 24 hrs by disc diffusion assay; assay type: functional; details: read-out: IZ
# Bacillus subtilis [7] = test: Antibacterial activity against Bacillus subtilis at 20 ug after 24 hrs by disc diffusion assay; assay type: functional; details: read-out: IZ
# Pseudomonas aeruginosa [8] = test: Antibacterial activity against Pseudomonas aeruginosa at 20 ug after 24 hrs by disc diffusion assay; assay type: functional; details: read-out: IZ
# Klebsiella pneumoniae [9] = test: Antibacterial activity against Klebsiella pneumoniae at 25 ug after 24 hrs by disc diffusion assay; assay type: functional; details: read-out: IZ
# Klebsiella pneumoniae [10] = test: Antibacterial activity against Klebsiella pneumoniae at 20 ug after 24 hrs by disc diffusion assay; assay type: functional; details: read-out: IZ
# Salmonella typhi [11] = test: Antibacterial activity against Salmonella typhi at 15 ug after 24 hrs by disc diffusion assay; assay type: functional, Salmonella enterica subsp. enterica serovar Typhi; details: Salmonella enterica, read-out: IZ
# Salmonella typhi [12] = test: Antibacterial activity against Salmonella typhi at 20 ug after 24 hrs by disc diffusion assay; assay type: functional, Salmonella enterica subsp. enterica serovar Typhi; details: Salmonella enterica, read-out: IZ
# Staphylococcus aureus [13] = test: Antibacterial activity against Staphylococcus aureus at 10 ug after 24 hrs by disc diffusion assay; assay type: functional; details: read-out: IZ
# Salmonella typhi [14] = test: Antibacterial activity against Salmonella typhi after 18 to 20 hrs by broth micro dilution assay; assay type: functional, Salmonella enterica subsp. enterica serovar Typhi; details: Salmonella enterica
# Bacillus subtilis [15] = test: Antibacterial activity against Bacillus subtilis at 25 ug after 24 hrs by disc diffusion assay; assay type: functional; details: read-out: IZ
# Escherichia coli [16] = test: Antibacterial activity against Escherichia coli after 18 to 20 hrs by broth micro dilution assay; assay type: functional
# Pseudomonas aeruginosa [17] = test: Antibacterial activity against Pseudomonas aeruginosa at 15 ug after 24 hrs by disc diffusion assay; assay type: functional; details: read-out: IZ
# Escherichia coli [18] = test: Antibacterial activity against Escherichia coli at 10 ug after 24 hrs by disc diffusion assay; assay type: functional; details: read-out: IZ
# Escherichia coli [19] = test: Antibacterial activity against Escherichia coli at 5 ug after 24 hrs by disc diffusion assay; assay type: functional; details: read-out: IZ
# Salmonella typhi [20] = test: Antibacterial activity against Salmonella typhi at 25 ug after 24 hrs by disc diffusion assay; assay type: functional, Salmonella enterica subsp. enterica serovar Typhi; details: Salmonella enterica, read-out: IZ
# Staphylococcus aureus [21] = test: Antibacterial activity against Staphylococcus aureus at 15 ug after 24 hrs by disc diffusion assay; assay type: functional; details: read-out: IZ
# Escherichia coli [22] = test: Inhibition of Escherichia coli DNA gyrase -mediated DNA relaxation using pBR322 DNA as substrate at […] after 1 hrs by agarose gel electrophoresis
# Pseudomonas aeruginosa [23] = test: Antibacterial activity against Pseudomonas aeruginosa at 5 ug after 24 hrs by disc diffusion assay; assay type: functional; details: read-out: IZ
# Staphylococcus aureus [24] = test: Antibacterial activity against Staphylococcus aureus after 18 to 20 hrs by broth micro dilution assay; assay type: functional
# Klebsiella pneumoniae [25] = test: Antibacterial activity against Klebsiella pneumoniae at 15 ug after 24 hrs by disc diffusion assay; assay type: functional; details: read-out: IZ
# Pseudomonas aeruginosa [26] = test: Antibacterial activity against Pseudomonas aeruginosa at 25 ug after 24 hrs by disc diffusion assay; assay type: functional; details: read-out: IZ
# Klebsiella pneumoniae [27] = test: Antibacterial activity against Klebsiella pneumoniae at 5 ug after 24 hrs by disc diffusion assay; assay type: functional; details: read-out: IZ
# Pseudomonas aeruginosa [28] = test: Antibacterial activity against Pseudomonas aeruginosa after 18 to 20 hrs by broth micro dilution assay; assay type: functional
# Escherichia coli [29] = test: Antibacterial activity against Escherichia coli at 15 ug after 24 hrs by disc diffusion assay; assay type: functional; details: read-out: IZ
# Staphylococcus aureus [30] = test: Antibacterial activity against Staphylococcus aureus at 25 ug after 24 hrs by disc diffusion assay; assay type: functional; details: read-out: IZ
# Bacillus subtilis [31] = test: Antibacterial activity against Bacillus subtilis at 15 ug after 24 hrs by disc diffusion assay; assay type: functional; details: read-out: IZ
# Klebsiella pneumoniae [32] = test: Antibacterial activity against Klebsiella pneumoniae at 10 ug after 24 hrs by disc diffusion assay; assay type: functional; details: read-out: IZ
# Bacillus subtilis [33] = test: Antibacterial activity against Bacillus subtilis after 18 to 20 hrs by broth micro dilution assay; assay type: functional
# Escherichia coli [34] = test: Antibacterial activity against Escherichia coli at 25 ug after 24 hrs by disc diffusion assay; assay type: functional; details: read-out: IZ
# Pseudomonas aeruginosa [35] = test: Antibacterial activity against Pseudomonas aeruginosa at 10 ug after 24 hrs by disc diffusion assay; assay type: functional; details: read-out: IZ
# Salmonella typhi [36] = test: Antibacterial activity against Salmonella typhi at 10 ug after 24 hrs by disc diffusion assay; assay type: functional, Salmonella enterica subsp. enterica serovar Typhi; details: Salmonella enterica, read-out: IZ
# Klebsiella pneumoniae [37] = test: Antibacterial activity against Klebsiella pneumoniae after 18 to 20 hrs by broth micro dilution assay; assay type: functional
structure (smiles),measurement,setting,value
CCC1[C@@H]2Nc3ccc(Cl)cc3C(C)(C)[C@H]2CN1OS(=O)(=O)c1ccc(C)cc1 (stereo partly specified),zone of inhibition at 5 µg/disc,Salmonella typhi [1],10 mm
same,inhibition of gyrase mRNA expression (active/not active),Escherichia coli [2],Active
same,zone of inhibition at 5 µg/disc,Staphylococcus aureus [3],20 mm
same,DNA gyrase inhibition (active/inactive),Escherichia coli [4],Active
same,zone of inhibition at 20 µg/disc,Staphylococcus aureus [5],30 mm
same,zone of inhibition at 20 µg/disc,Escherichia coli [6],20 mm
same,zone of inhibition at 20 µg/disc,Bacillus subtilis [7],7 mm
same,zone of inhibition at 20 µg/disc,Pseudomonas aeruginosa [8],20 mm
same,zone of inhibition at 25 µg/disc,Klebsiella pneumoniae [9],36 mm
same,zone of inhibition at 20 µg/disc,Klebsiella pneumoniae [10],34 mm
same,zone of inhibition at 15 µg/disc,Salmonella typhi [11],18 mm
same,zone of inhibition at 20 µg/disc,Salmonella typhi [12],22 mm
same,zone of inhibition at 10 µg/disc,Staphylococcus aureus [13],24 mm
same,MIC50,Salmonella typhi [14],128 µg/mL
same,MIC90,Salmonella typhi [14],128 µg/mL
same,zone of inhibition at 25 µg/disc,Bacillus subtilis [15],9 mm
same,MIC50,Escherichia coli [16],128 µg/mL
same,MIC90,Escherichia coli [16],128 µg/mL
same,zone of inhibition at 15 µg/disc,Pseudomonas aeruginosa [17],16 mm
same,zone of inhibition at 10 µg/disc,Escherichia coli [18],16 mm
same,zone of inhibition at 5 µg/disc,Escherichia coli [19],10 mm
same,zone of inhibition at 25 µg/disc,Salmonella typhi [20],24 mm
same,zone of inhibition at 15 µg/disc,Staphylococcus aureus [21],26 mm
same,inhibition,Escherichia coli [22],Active
same,zone of inhibition at 5 µg/disc,Pseudomonas aeruginosa [23],10 mm
same,MIC50,Staphylococcus aureus [24],128 µg/mL
same,MIC90,Staphylococcus aureus [24],128 µg/mL
same,zone of inhibition at 15 µg/disc,Klebsiella pneumoniae [25],30 mm
same,zone of inhibition at 25 µg/disc,Pseudomonas aeruginosa [26],23 mm
same,zone of inhibition at 5 µg/disc,Klebsiella pneumoniae [27],20 mm
same,MIC50,Pseudomonas aeruginosa [28],128 µg/mL
same,MIC90,Pseudomonas aeruginosa [28],128 µg/mL
same,zone of inhibition at 15 µg/disc,Escherichia coli [29],18 mm
same,zone of inhibition at 25 µg/disc,Staphylococcus aureus [30],36 mm
same,zone of inhibition at 15 µg/disc,Bacillus subtilis [31],6 mm
same,zone of inhibition at 10 µg/disc,Klebsiella pneumoniae [32],26 mm
same,MIC50,Bacillus subtilis [33],128 µg/mL
same,MIC90,Bacillus subtilis [33],128 µg/mL
same,zone of inhibition at 25 µg/disc,Escherichia coli [34],23 mm
same,zone of inhibition at 10 µg/disc,Pseudomonas aeruginosa [35],14 mm
same,zone of inhibition at 10 µg/disc,Salmonella typhi [36],16 mm
same,MIC50,Klebsiella pneumoniae [37],128 µg/mL
same,MIC90,Klebsiella pneumoniae [37],128 µg/mL
CCC1[C@@H]2Nc3ccccc3C(c3ccccc3)[C@H]2CN1OS(=O)(=O)c1ccc(C)cc1 (stereo partly specified),zone of inhibition at 5 µg/disc,Salmonella typhi [1],10 mm
same,inhibition of gyrase mRNA expression (active/not active),Escherichia coli [2],inactive
same,zone of inhibition at 5 µg/disc,Staphylococcus aureus [3],20 mm
same,DNA gyrase inhibition (active/inactive),Escherichia coli [4],Active
same,zone of inhibition at 20 µg/disc,Staphylococcus aureus [5],30 mm
same,zone of inhibition at 20 µg/disc,Escherichia coli [6],20 mm
same,zone of inhibition at 20 µg/disc,Bacillus subtilis [7],7 mm
same,zone of inhibition at 20 µg/disc,Pseudomonas aeruginosa [8],20 mm
same,zone of inhibition at 25 µg/disc,Klebsiella pneumoniae [9],36 mm
same,zone of inhibition at 20 µg/disc,Klebsiella pneumoniae [10],34 mm
same,zone of inhibition at 15 µg/disc,Salmonella typhi [11],18 mm
same,zone of inhibition at 20 µg/disc,Salmonella typhi [12],22 mm
same,zone of inhibition at 10 µg/disc,Staphylococcus aureus [13],24 mm
same,MIC50,Salmonella typhi [14],64 µg/mL
same,MIC90,Salmonella typhi [14],128 µg/mL
same,zone of inhibition at 25 µg/disc,Bacillus subtilis [15],9 mm
same,MIC50,Escherichia coli [16],64 µg/mL
same,MIC90,Escherichia coli [16],64 µg/mL
same,zone of inhibition at 15 µg/disc,Pseudomonas aeruginosa [17],16 mm
same,zone of inhibition at 10 µg/disc,Escherichia coli [18],16 mm
same,zone of inhibition at 5 µg/disc,Escherichia coli [19],10 mm
same,zone of inhibition at 25 µg/disc,Salmonella typhi [20],24 mm
same,zone of inhibition at 15 µg/disc,Staphylococcus aureus [21],26 mm
same,inhibition,Escherichia coli [22],Active
same,zone of inhibition at 5 µg/disc,Pseudomonas aeruginosa [23],10 mm
same,MIC50,Staphylococcus aureus [24],64 µg/mL
same,MIC90,Staphylococcus aureus [24],128 µg/mL
same,zone of inhibition at 15 µg/disc,Klebsiella pneumoniae [25],30 mm
same,zone of inhibition at 25 µg/disc,Pseudomonas aeruginosa [26],23 mm
same,zone of inhibition at 5 µg/disc,Klebsiella pneumoniae [27],20 mm
same,MIC50,Pseudomonas aeruginosa [28],64 µg/mL
same,MIC90,Pseudomonas aeruginosa [28],128 µg/mL
same,zone of inhibition at 15 µg/disc,Escherichia coli [29],18 mm
same,zone of inhibition at 25 µg/disc,Staphylococcus aureus [30],36 mm
same,zone of inhibition at 15 µg/disc,Bacillus subtilis [31],6 mm
same,zone of inhibition at 10 µg/disc,Klebsiella pneumoniae [32],26 mm
same,MIC50,Bacillus subtilis [33],64 µg/mL
same,MIC90,Bacillus subtilis [33],128 µg/mL
same,zone of inhibition at 25 µg/disc,Escherichia coli [34],23 mm
same,zone of inhibition at 10 µg/disc,Pseudomonas aeruginosa [35],14 mm
same,zone of inhibition at 10 µg/disc,Salmonella typhi [36],16 mm
same,MIC50,Klebsiella pneumoniae [37],64 µg/mL
same,MIC90,Klebsiella pneumoniae [37],64 µg/mL
